Source: patent US4310660A, “Lincomycin compounds” (The Upjohn Company, priority 1980, dated 1982)
Structures can show the parent of a compound that is named as a salt. Where two headings read alike, the source gives them in different places.

Legend:
Bacteroides fragilis = assay: MIC vs. anaerobic bacteria, agar dilution; assay type: cell-based
Clostridium perfringens = assay: microbe, parasite or virus in culture; assay type: cell-based
Clostridium novyi B = assay: MIC vs. anaerobic bacteria, agar dilution; assay type: cell-based; details: UC6329, UC 6329, read-out: Minimal Inhibitory Concentration (MIC)
Protocol: (§1) The procedure for the above test is as follows: Serial two-fold dilutions of drug are prepared in 1.0 ml volumes of Schaedler Broth, and 9.0 ml of molten (47° C.) Wilkens-Chalgren Agar Medium, infra, is added to the antibiotic-supplemented broth. After mixing with the antibiotic, the agar is poured into 100 mm×20 mm petri dishes. The dishes are allowed to stand on the bench overnight prior to inoculation.
(§2) Cultures are streaked on Wilkens-Chalgren Agar, and grown for 48 hours at 37° C. in a BBL Anaerobe Jar. Growth from the plate is harvested, and a cell suspension is made in Schaedler broth to equal the turbidity of a 0.5 McFarland Standard (10^8 cells/ml). The suspension is pipetted into the wells of a Steers replicator, and approx. 1-2 μl is delivered to the surface of the agar plates. After allowing a few minutes for the inoculum to dry, the plates are placed in a BBL Anaerobe Jar (atomsphere of 85% N, 10% H, 5% CO2) and incubated at 37° C. for 72 hours.
(§3) The Minimal Inhibitory Concentration (MIC) is read as the least amount of drug that inhibits growth. A very faint film of growth, or <3 is colonies is considered negative.

Clostridium sordellii = assay: MIC vs. anaerobic bacteria, agar dilution; assay type: cell-based; details: Paraclostridium sordellii, UC6505, UC 6505, read-out: Minimal Inhibitory Concentration (MIC)
Protocol: as §1, §2, §3

Clostridium tentani = assay: MIC vs. anaerobic bacteria, agar dilution; assay type: cell-based; details: UC6521, UC 6521, read-out: Minimal Inhibitory Concentration (MIC)
Protocol: as §1, §2, §3

Clostridium botulinum A = assay: microbe, parasite or virus in culture; assay type: cell-based; details: UC6506, read-out: Minimal Inhibitory Concentration (MIC)
Clostridium bifermentans = assay: MIC vs. anaerobic bacteria, agar dilution; assay type: cell-based; details: Paraclostridium bifermentans, UC6507, UC 6507, read-out: Minimal Inhibitory Concentration (MIC)
Eubacterium limosum = assay: MIC vs. anaerobic bacteria, agar dilution; assay type: cell-based; details: UC6515, UC 6515, read-out: Minimal Inhibitory Concentration (MIC)
Actinomyces naeslundii = assay: MIC vs. anaerobic bacteria, agar dilution; assay type: cell-based; details: UC5920, read-out: Minimal Inhibitory Concentration (MIC)
Fusobacterium varium = assay: MIC vs. anaerobic bacteria, agar dilution; assay type: cell-based; details: UC6052, UC 6052, read-out: Minimal Inhibitory Concentration (MIC)
[1] = tested on: Fusobacterium necrophorum; assay: MIC vs. anaerobic bacteria, agar dilution; assay type: cell-based; details: UC6568, UC 6568, read-out: Minimal Inhibitory Concentration (MIC)
Peptococcus magnus = assay: MIC vs. anaerobic bacteria, agar dilution; assay type: cell-based; details: Finegoldia magna, UC6258, UC 6258, read-out: Minimal Inhibitory Concentration (MIC)
[2] = tested on: Peptostreptococcus anaerobius; assay: MIC vs. anaerobic bacteria, agar dilution; assay type: cell-based; details: UC6321, UC 6321, read-out: Minimal Inhibitory Concentration (MIC)
[3] = Acute I.P. toxicity in the mouse (LD50); assay type: in vivo
Text: This value is the resulting mean of two separate and identical LD50 determinations.

D. pneumoniae III = assay: Mouse Protection Test; assay type: in vivo; details: strain MPI III, two experiments listed; for ED50: Streptococcus pneumoniae, 168 h, read-out: Median Protective Dose (CD50); for Median Protective Dose (CD50): 10080 min, listed as U-57930E . Hcl
Text: (§4) Immediately before use, the suspensions were thawed quickly and properly diluted. Infection was via the intrapertioneal route.
(§5) Treatment of the infected groups was begun immediately and continued once per day for 4 days (first 24 hr period=1). Groups of untreated mice served as virulence controls for the culture.
(§6) Seven days after the treatment regimen was begun the surviving animals were sacrificed and the median protective dose of the antibiotic calculated on the basis of mortality rates in the treatment groups. The median protective dose and its 95% confidence interval were calculated according to the method of Spearmen & Karber as programmed on a 360 digital computer.
(§7) U-60,970E was also tested in vivo in standard laboratory mice which were experimentally infected with bacteria. The test was conducted in comparison with U-57,930E.

D. pneumoniae I = assay: Mouse Protection Test; assay type: in vivo; details: Streptococcus pneumoniae, 168 h, strain Felton I, read-out: Median Protective Dose (CD50)
Text: as §4, §5, §6, §7

CC[C@@H]1CCN[C@H](C(=O)N[C@@H]([C@H]2O[C@H](SC)[C@H](O)[C@@H](O)[C@H]2O)[C@H](C)Cl)C1 [U-57,930E, 4-Cis-ethyl-1-pipecolic acid amide of 7-Cl-MTL.HCl]
MIC (Bacteroides fragilis; UC6428, UC 6428, read-out: Minimal Inhibitory Concentration (MIC)): 0.25 µg/mL
MIC (Bacteroides fragilis; UC6513, UC 6513, read-out: Minimal Inhibitory Concentration (MIC)): 0.12 µg/mL
MIC (Bacteroides fragilis; UC6862, UC 6862, read-out: Minimal Inhibitory Concentration (MIC)): 15.6 µg/mL
MIC (Bacteroides fragilis; UC6864, UC 6864, read-out: Minimal Inhibitory Concentration (MIC)): 2 µg/mL
MIC (Clostridium perfringens; UC247, read-out: Minimal Inhibitory Concentration (MIC)): 0.12 µg/mL
MIC (Clostridium perfringens; UC6509, read-out: Minimal Inhibitory Concentration (MIC)): 0.12 µg/mL
MIC (Clostridium novyi B): 0.12 µg/mL
MIC (Clostridium sordellii): 0.5 µg/mL
MIC (Clostridium tentani): ≤ 0.03 µg/mL
MIC (Clostridium botulinum A): ≤ 0.03 µg/mL
MIC (Clostridium bifermentans): 0.06 µg/mL
MIC (Eubacterium limosum): 2 µg/mL
MIC (Actinomyces naeslundii): 0.25 µg/mL
MIC (Fusobacterium varium): 3.9 µg/mL
MIC [1]: 0.06 µg/mL
MIC (Peptococcus magnus): 0.06 µg/mL
MIC [2]: 0.12 µg/mL
LD50 as multiple of the LD50 for clindamycin HCl [3]: approximately 2 times
acute I.P. toxicity relative to clindamycin HCl [3]: approximately one-half
LD50 ([3]; in vivo, ip, mean of two determinations): 592 mg/kg
ED50 (D. pneumoniae III; po, oral): 14.4 mg/kg
ED50 (D. pneumoniae III; sc, subcutaneous): 2.68 mg/kg
Median Protective Dose (CD50) (D. pneumoniae III; oral): 16.49 (10.51-25.88) mg/kg
Median Protective Dose (CD50) (D. pneumoniae III; subcutaneous): 2.5 (1.69-3.69) mg/kg
ED50 (D. pneumoniae I; oral): 15.4 mg/kg
ED50 (D. pneumoniae I; sc, subcutaneous): 1.54 mg/kg
